Here are results for 1 molecule from ChEMBL document CHEMBL4251633, “Design, synthesis, biological evaluation and cocrystal structures with tubulin of chiral β-lactam bridged combretastatin A-4 analogues as potent antitumor agents” (Eur J Med Chem, 2018).

Data set [1] deals with A2780. Kind of data set: Antitumor activity against human A2780 cells xenografted in Balb/c nude mouse assessed as tumor volume inhibition at 8 mg/kg, ip once in every 2 days measured up to 14 days relative to control. The class given is functional.
For data set [2], the system named is MDA-MB-231. Description: Antiproliferative activity against human MDA-MB-231 cells after 48 hrs by MTT assay. The class given is functional, cell-based. The following applies: MDA-MB-231, 48 h.
A further data set relates to Mus musculus. Kind of data set: Anti-vascular activity in Balb/c nude mouse assessed as inhibition of VEGF-induced capillary blood vessel formation by measuring reduction in hemoglobin level using sc injected matrigel plug supplemented with 100 nM test compound mixed with VEGF and measured after 1 week by matrigel plug assay. The class given is functional, organism-based.

The next data set deals with SK-OV-3. Description: Antiproliferative activity against human SKOV3 cells after 48 hrs by MTT assay. The following applies: SK-OV-3, 48 h. A general note: Tetrazolium assays rely on reduction of a dye to a coloured formazan, in cell work by metabolically active cells.
Data set [3] concerns HeLa. Description: Induction of apoptosis in human HeLa cells assessed as late apoptotic cells at 100 nM after 48 hrs by Annexin V-FITC/propidium iodide staining based flow cytometry (reference value: 2%). The class given is functional.
Data set [4] can be described thus: Acute toxicity in ICR mouse assessed as survival rate at 125 mg/kg, ip measured on day 14 (reference value: 100%). The class given is organism-based. The following applies: in vivo.
Data set [5] concerns HeLa. Description: Upregulation of Cyclin-B1 protein expression in human HeLa cells at 50 to 200 nM by Western blot analysis. Format: functional, cell-based.
Data set [6] relates to HeLa. Kind of data set: Induction of apoptosis in human HeLa cells assessed as necrotic cells at 200 nM after 48 hrs by Annexin V-FITC/propidium iodide staining based flow cytometry (reference value: 0.9%). The class given is functional. On the technique in general: In flow cytometry, cells or beads pass a laser one at a time.
Data set [7] relates to A2780. Kind of data set: Antitumor activity against human A2780 cells xenografted in Balb/c nude mouse assessed as isolated tumor weight inhibition at 8 mg/kg, ip once in every 2 days measured after 14 days. Format: functional, organism-based. In general terms: In xenograft studies the graft and the host belong to different species.
Data set [8] in a line: Acute toxicity in ICR mouse assessed as survival rate at 275 mg/kg, ip measured on day 14 (reference value: 100%). The class given is organism-based. The following applies: in vivo.
The subject of data set [9] is MDA-MB-231. Kind of data set: Anticlonogenic activity against human MDA-MB-231 cells incubated for 48 hrs followed by replacement with fresh medium measured after 7 to 10 days by gentian violet staining based assay. Format: functional, cell-based.

Active and inactive are the calls of the source. The calls are words filed in the database; no cut-off is given here.

As for `COc1ccc([C@H]2[C@H](C)C(=O)N2c2cc(OC)c(OC)c(OC)c2)cc1O`, in the data set with A2780 [1], the inhibition in vivo (commonly the drop in the measured response relative to a control, in per cent) at 8 mg/kg came to 76.3%. Further, the half-maximal inhibitory concentration (IC50) with MDA-MB-231 [2] and in the data set with SK-OV-3 was 3 nM throughout. Besides, the inhibition result with Mus musculus and in the data set with A2780 [7] was “Active” throughout. Moreover, the Activity in the data set with HeLa [3] was 29.9%; in the data set with HeLa [6], 7.2%; in the data set on MDA-MB-231 [9], “Dose-dependent effect”. Further, the survival at 14 day turned out to be 70% in data set [4] and 10% in data set [8]. In addition, in the data set on HeLa [5], the outcome was Active.
